Values quoted from earlier work, collected in patent US20180064146A1, “METHOD FOR THE SURFACE DECONTAMINATION OF PACKAGED SOLID FOOD” (priority 2015, published 2018).

Assays:
[1] = tested on: strains of Arcobacter butzleri; conditions: vapours; Arcobacter butzleri in cabbage leaf; to an undetectable level
Escherichia coli = conditions: for MICs (in liquid form): agar dilution, oil in liquid form; for MIDs (as vapour): oil as vapour

Row | Compound | microbial load reduction [1] | MICs (in liquid form) (Escherichia coli) | MIDs (as vapour) (Escherichia coli)
1 | CC(C)=CCCC(C)=CC=O [Citral] | 7 log CFU/2 cm^2 | 800 µg/mL | 12.5 μg/cm^2
2 | C=C(C)[C@H]1CC=C(C)CC1 [Limonene] | – | 3200 µg/mL | 800 μg/cm^2
3 | C=CC(C)(O)CCC=C(C)C (centres unmarked) [Linalool] | 7 log CFU/2 cm^2 | 3200 µg/mL | 50 μg/cm^2
